Results taken from the supplement of paper PMC10307832.

How the values were obtained:
Assay in all cases: relative viability (nuclei count vs DMSO), 5 days (fraction); higher = more cells survive
[1] = compound: CS(=O)(=O)c1ccc(-c2cnc(N)c(C(=O)Nc3ccccc3)n2)cc1 [VE-821] + C[C@@H](Oc1cc(-c2cnn(C3CCNCC3)c2)cnc1N)c1c(Cl)ccc(F)c1Cl [Crizotinib] (partner 1 µM)
Outline: (§1)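 Nuclei were stained with Hoechst during a one-step fixation (final 0.05% Triton X-100, 1% formaldehyde, 1 ug/ml Hoechst) carried out 5 days after dosing, then counted on 4× images. The cells, lung cancer lines in 1536-well plates, had been dosed by pin tool the day after seeding with one drug alone or a fixed anchor-drug dose plus five library-drug doses (not always all listed) in √10 steps. Relative viability is the nuclei count in treated wells divided by that in vehicle wells, and each value is the median of duplicate plates.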

[2] = compound: CS(=O)(=O)c1ccc(C(=O)Nc2ccc(Cl)c(-c3ccccn3)c2)c(Cl)c1 [Vismodegib] + O=C(c1cc(Cc2n[nH]c(=O)c3ccccc23)ccc1F)N1CCN(C(=O)C2CC2)CC1 [Olaparib] (partner 8 µM)
Outline: as §1

[3] = compound: CS(=O)(=O)c1ccc(C(=O)Nc2ccc(Cl)c(-c3ccccn3)c2)c(Cl)c1 [Vismodegib] + CS(=O)(=O)N1CCN(Cc2cc3nc(-c4cccc5[nH]ncc45)nc(N4CCOCC4)c3s2)CC1 [Pictilisib] (partner 1 µM)
Outline: as §1

[4] = compound: CS(=O)(=O)c1ccc(-c2cnc(N)c(C(=O)Nc3ccccc3)n2)cc1 [VE-821] + CC(=O)Nc1cccc(-n2c(=O)n(C3CC3)c(=O)c3c(Nc4ccc(I)cc4F)n(C)c(=O)c(C)c32)c1 [Trametinib] (partner 0.02 µM)
Outline: as §1

NCI-H727
relative viability ([1]; first compound 0.08 µM): 0.866 | relative viability ([1]; first compound 0.253 µM): 0.804 | relative viability ([1]; first compound 0.8 µM): 0.898 | relative viability ([1]; first compound 2.53 µM): 0.739 | relative viability ([1]; first compound 8 µM): 0.394 | relative viability ([2]; first compound 0.08 µM): 0.66 | relative viability ([2]; first compound 0.253 µM): 0.683 | relative viability ([2]; first compound 0.8 µM): 0.76 | relative viability ([2]; first compound 2.53 µM): 0.724 | relative viability ([2]; first compound 8 µM): 0.749 | relative viability ([3]; first compound 0.08 µM): 0.525 | relative viability ([3]; first compound 0.253 µM): 0.395 | relative viability ([3]; first compound 0.8 µM): 0.277 | relative viability ([3]; first compound 2.53 µM): 0.257 | relative viability ([3]; first compound 8 µM): 0.402 | relative viability ([4]; first compound 0.08 µM): 0.398 | relative viability ([4]; first compound 0.253 µM): 0.432 | relative viability ([4]; first compound 0.8 µM): 0.416 | relative viability ([4]; first compound 2.53 µM): 0.422 | relative viability ([4]; first compound 8 µM): 0.396

CAL-12T
relative viability ([1]; first compound 0.08 µM): 0.798 | relative viability ([1]; first compound 0.253 µM): 0.674 | relative viability ([1]; first compound 0.8 µM): 0.537 | relative viability ([1]; first compound 2.53 µM): 0.369 | relative viability ([1]; first compound 8 µM): 0.316 | relative viability ([2]; first compound 0.08 µM): 0.81 | relative viability ([2]; first compound 0.253 µM): 0.691 | relative viability ([2]; first compound 0.8 µM): 0.411 | relative viability ([2]; first compound 2.53 µM): 0.757 | relative viability ([2]; first compound 8 µM): 0.713 | relative viability ([3]; first compound 0.253 µM): 0.509 | relative viability ([3]; first compound 0.8 µM): 0.263 | relative viability ([3]; first compound 2.53 µM): 0.241 | relative viability ([3]; first compound 8 µM): 0.36 | relative viability ([4]; first compound 0.08 µM): 0.372 | relative viability ([4]; first compound 0.253 µM): 0.355 | relative viability ([4]; first compound 0.8 µM): 0.325 | relative viability ([4]; first compound 2.53 µM): 0.322 | relative viability ([4]; first compound 8 µM): 0.325

NCI-H441
relative viability ([1]; first compound 0.08 µM): 1.21 | relative viability ([1]; first compound 0.253 µM): 0.791 | relative viability ([1]; first compound 0.8 µM): 0.866 | relative viability ([1]; first compound 2.53 µM): 0.927 | relative viability ([1]; first compound 8 µM): 0.723 | relative viability ([2]; first compound 0.08 µM): 0.561 | relative viability ([2]; first compound 0.8 µM): 0.579 | relative viability ([2]; first compound 2.53 µM): 0.55 | relative viability ([2]; first compound 8 µM): 0.55 | relative viability ([3]; first compound 0.08 µM): 0.505 | relative viability ([3]; first compound 0.253 µM): 0.444 | relative viability ([3]; first compound 0.8 µM): 0.536 | relative viability ([3]; first compound 2.53 µM): 0.391 | relative viability ([3]; first compound 8 µM): 0.502 | relative viability ([4]; first compound 0.08 µM): 0.547 | relative viability ([4]; first compound 0.253 µM): 0.516 | relative viability ([4]; first compound 0.8 µM): 0.371 | relative viability ([4]; first compound 2.53 µM): 0.57 | relative viability ([4]; first compound 8 µM): 0.38

NCI-H1944
relative viability ([1]; first compound 0.08 µM): 1.25 | relative viability ([1]; first compound 0.253 µM): 1.05 | relative viability ([1]; first compound 0.8 µM): 0.956 | relative viability ([1]; first compound 2.53 µM): 1.14 | relative viability ([1]; first compound 8 µM): 0.696 | relative viability ([2]; first compound 0.08 µM): 0.414 | relative viability ([2]; first compound 0.253 µM): 0.404 | relative viability ([2]; first compound 0.8 µM): 0.398 | relative viability ([2]; first compound 8 µM): 0.441 | relative viability ([3]; first compound 0.08 µM): 0.354 | relative viability ([3]; first compound 0.253 µM): 0.349 | relative viability ([3]; first compound 0.8 µM): 0.308 | relative viability ([3]; first compound 2.53 µM): 0.327 | relative viability ([3]; first compound 8 µM): 0.345 | relative viability ([4]; first compound 0.08 µM): 0.401 | relative viability ([4]; first compound 0.253 µM): 0.445 | relative viability ([4]; first compound 0.8 µM): 0.432 | relative viability ([4]; first compound 2.53 µM): 0.399 | relative viability ([4]; first compound 8 µM): 0.364

RERF-LC-KJ
relative viability ([1]; first compound 0.08 µM): 0.839 | relative viability ([1]; first compound 0.253 µM): 0.806 | relative viability ([1]; first compound 0.8 µM): 0.775 | relative viability ([1]; first compound 2.53 µM): 0.701 | relative viability ([1]; first compound 8 µM): 0.693 | relative viability ([2]; first compound 0.08 µM): 0.985 | relative viability ([2]; first compound 0.253 µM): 0.826 | relative viability ([2]; first compound 0.8 µM): 0.785 | relative viability ([2]; first compound 2.53 µM): 0.862 | relative viability ([2]; first compound 8 µM): 0.96 | relative viability ([3]; first compound 0.08 µM): 0.585 | relative viability ([3]; first compound 0.253 µM): 0.496 | relative viability ([3]; first compound 0.8 µM): 0.663 | relative viability ([3]; first compound 2.53 µM): 0.567 | relative viability ([3]; first compound 8 µM): 0.561 | relative viability ([4]; first compound 0.08 µM): 0.935 | relative viability ([4]; first compound 0.253 µM): 0.788 | relative viability ([4]; first compound 0.8 µM): 0.704 | relative viability ([4]; first compound 2.53 µM): 0.81 | relative viability ([4]; first compound 8 µM): 0.69

NCI-H838
relative viability ([1]; first compound 0.08 µM): 0.96 | relative viability ([1]; first compound 0.253 µM): 0.721 | relative viability ([1]; first compound 0.8 µM): 0.688 | relative viability ([1]; first compound 2.53 µM): 0.875 | relative viability ([1]; first compound 8 µM): 0.757 | relative viability ([2]; first compound 0.08 µM): 0.791 | relative viability ([2]; first compound 0.253 µM): 0.71 | relative viability ([2]; first compound 0.8 µM): 0.777 | relative viability ([2]; first compound 2.53 µM): 0.757 | relative viability ([2]; first compound 8 µM): 0.778 | relative viability ([3]; first compound 0.08 µM): 0.389 | relative viability ([3]; first compound 0.253 µM): 0.408 | relative viability ([3]; first compound 0.8 µM): 0.415 | relative viability ([3]; first compound 2.53 µM): 0.489 | relative viability ([3]; first compound 8 µM): 0.504 | relative viability ([4]; first compound 0.08 µM): 0.568 | relative viability ([4]; first compound 0.253 µM): 0.472 | relative viability ([4]; first compound 0.8 µM): 0.544 | relative viability ([4]; first compound 2.53 µM): 0.648 | relative viability ([4]; first compound 8 µM): 0.345
